Source: patent publication US9617256B2 (priority 2007, dated 2017)
Converted amounts (≈) assume the structure as drawn.

Tests used:
[1] = system: AECO001 (ATCC25922); assay: MIC broth microdilution, AECO001; format: cell-based, E. coli; settings: Escherichia coli, ATCC25922, read-out: MIC AECO001
Outline: (§1)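 MICs come from broth microdilution in cation-adjusted Mueller-Hinton broth, final inoculum 3×10^5–7×10^5 CFU/mL, 18-24 hours at 35° C. Levofloxacin and QC strains served as assay controls.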

[2] = system: AECO063 (ATCC25922 bearing an acrAB mutation); assay: microbe, parasite or virus in culture; format: cell-based, E. coli; settings: Escherichia coli, ATCC25922, read-out: MIC AECO063
Outline: as §1

[3] = system: APAE001 (ATCC27853); assay: MIC broth microdilution, APAE001; format: cell-based, P. aeruginosa; settings: Pseudomonas aeruginosa, ATCC27853, read-out: MIC APAE001, APAE001 is ATCC27853
Outline: as §1

[4] = system: APAE006 (strain of P. aeruginosa in which all efflux pumps are inactivated); assay: microbe, parasite or virus in culture; format: cell-based; settings: Pseudomonas aeruginosa, read-out: MIC APAE006, P. aeruginosa, all efflux pumps inactivated
Outline: (§2)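 CLSI-guided microdilution: bacteria passaged overnight at 35° C. on Mueller-Hinton agar, tested in cation-adjusted broth at a final 3×10^5–7×10^5 CFU/mL across 2-fold drug dilutions, read after 18-24 h at 35° C.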

[5] = system: APAE006 in the presence of 8 micrograms per milliliter of polymyxin B nonapeptide; format: cell-based, P. aeruginosa; settings: in the presence of 8 micrograms per milliliter of polymyxin B nonapeptide
Outline: as §2

[6] = system: AABA1060 (clinical isolate of Acinetobacter baumannii); assay: MIC broth microdilution, AABA1060; format: cell-based; settings: Acinetobacter baumannii, read-out: MIC AABA1060
Outline: as §1

[7] = system: ASAU001 (laboratory strain of S. aureus, ATCC29213); assay: MIC broth microdilution, ASAU001; format: cell-based; settings: Staphylococcus aureus, ATCC29213, read-out: MIC ASAU001
Outline: as §1

[8] = system: AECO001 HSA AGP; assay: MIC broth microdilution, AECO001 HSA AGP; format: cell-based, E. coli; settings: Escherichia coli
Outline: as §1

| Structure (SMILES) | MIC [1] [µg/mL] | MIC [2] [µg/mL] | MIC [3] [µg/mL] | MIC [4] [µg/mL] | MIC APAE006 + PMBN [5] | MIC [6] [µg/mL] | MIC [7] [µg/mL] | MIC [8] [µg/mL] |
| --- | --- | --- | --- | --- | --- | --- | --- | --- |
| C[C@@H](N)[C@H](NC(=O)c1ccc(C#C/C=C/c2ccc(CO)cc2)cc1)C(=O)NO [Example 101-3] | < 2 | < 2 | < 2 | < 2 | A (MIC's of 2.0 μg/mL or less = A) | 2 to 16 (≈ 5.08 to 40.7 µM) | 16 to 64 (≈ 40.7 to 163 µM) | 2 to 16 (≈ 5.08 to 40.7 µM) |
| C[C@H](O)[C@H](NC(=O)c1ccc(C#C/C=C/c2ccc(CO)cc2)cc1)C(=O)NO [Example 101-4] | < 2 | < 2 | 2 to 16 (≈ 5.07 to 40.6 µM) | < 2 | A (MIC's of 2.0 μg/mL or less = A) | 16 to 64 (≈ 40.6 to 162 µM) | 16 to 64 (≈ 40.6 to 162 µM) | 2 to 16 (≈ 5.07 to 40.6 µM) |
| CC(C)(O)[C@H](NC(=O)c1ccc(C#C/C=C/c2ccc(CO)cc2)cc1)C(=O)NO [Example 101-5] | < 2 | < 2 | < 2 | < 2 | A (MIC's of 2.0 μg/mL or less = A) | < 2 | 16 to 64 (≈ 39.2 to 157 µM) | 2 to 16 (≈ 4.9 to 39.2 µM) |
| C[C@@H](O)[C@H](NC(=O)c1ccc(C#C/C=C/c2ccc(CNC3CC3)cc2)cc1)C(=O)NO [Example 102-1, 4-[(E)-4-(4-Cyclopropylaminomethyl-phenyl)-but-3-en-1-ynyl]-N-((1S,2R)-2-hydroxy-1-hydroxycarbamoyl-propyl)-benzamide] | < 2 | < 2 | 2 to 16 (≈ 4.61 to 36.9 µM) | < 2 | A (MIC's of 2.0 μg/mL or less = A) | 16 to 64 (≈ 36.9 to 148 µM) | 16 to 64 (≈ 36.9 to 148 µM) | 2 to 16 (≈ 4.61 to 36.9 µM) |
| C[C@@H](N)[C@H](NC(=O)c1ccc(C#C/C=C/c2ccc(CNC3CC3)cc2)cc1)C(=O)NO [Example 102-2] | < 2 | < 2 | 2 to 16 (≈ 4.62 to 37 µM) | < 2 | A (MIC's of 2.0 μg/mL or less = A) | 2 to 16 (≈ 4.62 to 37 µM) | 16 to 64 (≈ 37 to 148 µM) | 2 to 16 (≈ 4.62 to 37 µM) |
| NC[C@H](NC(=O)c1ccc(C#C/C=C/c2ccc(CNC3CC3)cc2)cc1)C(=O)NO [Example 102-3] | < 2 | < 2 | < 2 | < 2 | A (MIC's of 2.0 μg/mL or less = A) | 16 to 64 (≈ 38.2 to 153 µM) | 16 to 64 (≈ 38.2 to 153 µM) | 2 to 16 (≈ 4.78 to 38.2 µM) |
| C[C@H](O)[C@H](NC(=O)c1ccc(C#C/C=C/c2ccc(CNC3CC3)cc2)cc1)C(=O)NO [Example 102-4] | < 2 | < 2 | 2 to 16 (≈ 4.61 to 36.9 µM) | < 2 | A (MIC's of 2.0 μg/mL or less = A) | 16 to 64 (≈ 36.9 to 148 µM) | > 64 | 2 to 16 (≈ 4.61 to 36.9 µM) |
| CC(C)(O)[C@H](NC(=O)c1ccc(C#C/C=C/c2ccc(CNC3CC3)cc2)cc1)C(=O)NO [Example 102-5] | < 2 | < 2 | < 2 | < 2 | A (MIC's of 2.0 μg/mL or less = A) | 2 to 16 (≈ 4.47 to 35.8 µM) | > 64 | < 2 |
| O=C(CNC1CC1)NC[C@H](NC(=O)c1ccc(C#C/C=C/c2ccc(CO)cc2)cc1)C(=O)NO [Example 103-1, N—[(S)-2-(2-cyclopropylamino-acetylamino)-1-hydroxycarbamoyl-ethyl]-4-[(E)-4-(4-hydroxymethyl-phenyl)-but-3-en-1-ynyl]-benzamide] | < 2 | < 2 | 2 to 16 (≈ 4.2 to 33.6 µM) | < 2 | A (MIC's of 2.0 μg/mL or less = A) | > 64 | > 64 | 2 to 16 (≈ 4.2 to 33.6 µM) |
| C[C@@H](O)[C@H](NC(=O)c1ccc(C#C/C=C/c2ccccc2)cc1)C(=O)NO [Example 104-1, N-((1S,2R)-2-Hydroxy-1-hydroxycarbamoyl-propyl)-4-((E)-4-phenyl-but-3-en-1-ynyl)-benzamide] | < 2 | < 2 | 2 to 16 (≈ 5.49 to 43.9 µM) | < 2 | A (MIC's of 2.0 μg/mL or less = A) | 2 to 16 (≈ 5.49 to 43.9 µM) | 16 to 64 (≈ 43.9 to 176 µM) | 2 to 16 (≈ 5.49 to 43.9 µM) |
